Where a chain is given by its changes, count along the chain named. In brackets after ≈: the same amount, converted by molar mass. Several values for one entry are separate records, joined by “and”; a condition that tells them apart may be missing. Equal values may be shown once. Read-outs that look alike come from different tables or passages of the source.
Assays:
[1] = system: E. coli BL21(DE3) strain overexpressing DfrA5; assay: Antibacterial activity (MIC); format: cell-based; conditions: Escherichia coli
DfrA1 [2] = target: T1, DfrA1 (Escherichia coli, UniProt P00382); format: binding, E. coli
T1 construct: dfrA1 gene (UniProtKB:A4GRC7) were synthesized and cloned in pET-41a (+) vector; made in house; host or cells: E. coli BL21(DE3)
T1 sequence (P00382 1-157): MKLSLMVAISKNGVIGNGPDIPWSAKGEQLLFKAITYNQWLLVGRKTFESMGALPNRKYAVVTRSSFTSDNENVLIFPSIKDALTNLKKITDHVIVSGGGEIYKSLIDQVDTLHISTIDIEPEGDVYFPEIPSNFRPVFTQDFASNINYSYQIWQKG
Description: (§1) In all, 200 µg of purified enzyme was preincubated for 18 h without and with a 10× molar excess of the ligand(s) (NADPH, TMP or PLA) in 20 mM Hepes 7.5, 100 mM KCl, 5% glycerol, ±2.0% DMSO and 2 mM DTT buffer. […] Changes in intrinsic fluorescence intensity (measured ratio of absorbance at 350 nm over 330 nm) from tryptophan residues were used to calculate derivatives using the evaluation features provided by the Tycho instrument.

E. coli DHFR (EcDHFR) = target: T2, E. coli DHFR (EcDHFR) (Escherichia coli, UniProt P0ABQ4); assay: biochemical
T2 construct: E. coli DHFR gene (UniProtKB:P0ABQ4) and dfrA1 gene (UniProtKB:A4GRC7) were synthesized and cloned in pET-41a (+) vector; made in house; host or cells: E. coli BL21(DE3)
Description: (§2) The assay was performed at room temperature using the Shimadzu UV/visible spectrophotometer. A standard reaction buffer contained 20 mM TES, pH 7.0, 50 mM KCl, 10 mM β-mercapthoethanol, 0.5 mM EDTA, and 1 mg/ml BSA. […] All measurements were performed in triplicate, from at least two independent experiments.

E. coli BW25113 = assay: microbe, parasite or virus in culture; format: cell-based; conditions: for MIC: Escherichia coli, 80% inhibition of growth
Description: (§3) Preparation, handling of cultures and the antibiotic susceptibility testing was performed according to CLSI guidelines. […] The compounds at the highest concentrations alone and paired with Sulfamethoxazole (1:19 w/w ratio) were then added to the first well before being serially diluted (2-fold) throughout the plate, leaving the last well with broth only (negative growth control). Next, 50 μl of the inoculum was added to each well.

[3] = system: E. coli JW0451 acrB mutant strain; assay: microbe, parasite or virus in culture; format: cell-based; conditions: for MIC: w/o SMX, 80% inhibition of growth, 18 to 20 hours, 37°C
Description: as §3

[4] = remark limiting MST studies
DfrA1 and DfrA5 = format: biochemical, E. coli; conditions: range over DfrA1 and DfrA5
Description: as §2

[5] = system: E. coli BL21(DE3) strain overexpressing EcDHFR wt; assay: Antibacterial activity (MIC); format: cell-based; conditions: Escherichia coli, w/o SMX
DfrA5 [6] = target: T3, DfrA5 (Escherichia coli, UniProt P11731); format: binding, E. coli; set-up: E. coli dfrA5 gene (UniProtKB:A0A4Y6L037) was synthesized and cloned in pET-24a (+) vector with the same restriction sites; 6xHis tag (C); made in house; host or cells: E. coli BL21(DE3)
Description: In all, 200 µg of purified enzyme was preincubated for 18 h without and with a 10× molar excess of the ligand(s) (NADPH, TMP or PLA) in 20 mM Hepes 7.5, 100 mM KCl, 5% glycerol, ±2.0% DMSO and 2 mM DTT buffer. […] Changes in intrinsic fluorescence intensity (measured ratio of absorbance at 350 nm over 330 nm) from tryptophan residues were used to calculate derivatives using the evaluation features provided by the Tycho instrument. The inflection temperature (Ti) as a marker of protein structural integrity was determined by the first derivative of the signal (ratio of 350 nm/330 nm).

EcDHFR D27E/L28Q [7] = target: T4, EcDHFR D27E/L28Q (Escherichia coli, UniProt P0ABQ4, D27E/L28Q); assay: Enzyme inhibition assay (NADPH oxidation, 340 nm); format: biochemical
T4 construct: using E. coli DHFR template previously synthesized by GeneScript; made in house; host or cells: E. coli BL21(DE3)
T4 sequence (P0ABQ4 1-159 D27E/L28Q): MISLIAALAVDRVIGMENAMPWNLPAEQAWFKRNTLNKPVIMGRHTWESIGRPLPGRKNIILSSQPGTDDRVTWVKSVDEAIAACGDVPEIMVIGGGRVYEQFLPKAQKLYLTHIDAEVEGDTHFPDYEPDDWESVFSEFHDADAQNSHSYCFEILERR
Description: as §2

EcDHFR D27E [8] = target: T5, EcDHFR D27E (Escherichia coli, UniProt P0ABQ4, D27E); assay: Enzyme inhibition assay (NADPH oxidation, 340 nm); format: biochemical
T5 construct: using E. coli DHFR template previously synthesized by GeneScript; made in house; host or cells: E. coli BL21(DE3)
T5 sequence (P0ABQ4 1-159 D27E): T4 sequence (P0ABQ4 1-159 D27E/L28Q) with Q28L
Description: as §2

EcDHFR L28Q [9] = target: T6, EcDHFR L28Q (Escherichia coli, UniProt P0ABQ4, L28Q); assay: Enzyme inhibition assay (NADPH oxidation, 340 nm); format: biochemical
T6 construct: using E. coli DHFR template previously synthesized by GeneScript; made in house; host or cells: E. coli BL21(DE3)
T6 sequence (P0ABQ4 1-159 L28Q): T4 sequence (P0ABQ4 1-159 D27E/L28Q) with E27D
Description: as §2

[10] = system: E. coli BL21(DE3) strain overexpressing DfrA1; assay: Antibacterial activity (MIC); format: cell-based; conditions: Escherichia coli
DfrA5 [11] = target: T3, DfrA5; assay: biochemical; set-up: species or system E. coli
Description: as §2

EcDHFR [12] = target: T7, EcDHFR (Escherichia coli, UniProt P0ABQ4); format: binding
T7 construct: E. coli DHFR gene (UniProtKB:P0ABQ4) and dfrA1 gene (UniProtKB:A4GRC7) were synthesized and cloned in pET-41a (+) vector; made in house; host or cells: E. coli BL21(DE3)
Description: as §1

DfrA1 [13] = format: biochemical, E. coli
Excerpt: (§4) using a nonlinear regression method in GraphPad Prism 9.2.0 software. To determine the turnover number (kcat) using the same model, the enzyme concentration (based on the protein concentration determined by Bradford assay) was constrained to a constant value and analyzed by the following equation (Eq. 3):3 Y=Et×kcat×X/(Km+X)

DfrA5 [14] = format: biochemical, E. coli
Excerpt: as §4

DfrA1 [15] = target: T1, DfrA1; assay: biochemical; format: binding, E. coli
EcDHFR [16] = target: T7, EcDHFR; assay: biochemical; format: binding
DfrA5 [17] = target: T3, DfrA5; assay: biochemical; format: binding, E. coli
EcDHFR D27E/L28Q [18] = target: T4, EcDHFR D27E/L28Q; assay: Steady-state kinetic measurements; format: biochemical; conditions: varied substrate 1 to 200 µM, 25 °C
Excerpt: as §4

EcDHFR D27E [19] = target: T5, EcDHFR D27E; assay: Steady-state kinetic measurements; format: biochemical; conditions: varied substrate 1 to 200 µM, 25 °C
Excerpt: as §4

EcDHFR L28Q [20] = target: T6, EcDHFR L28Q; assay: Steady-state kinetic measurements; format: biochemical; conditions: varied substrate 1 to 200 µM, 25 °C
Excerpt: as §4

[21] = binary complex, 10× molar excess of ligand

CCc1nc(N)nc(N)c1C#CC(C)c1cc(-c2ccc(C(N)=O)cc2)ccc1Cl (centres unmarked) [UCP1228]
MIC ([1]; w/ SMX (1:19)): 20 µg/mL (≈ 47.6 µM)
MIC ([1]; w/o SMX): > 20 µg/mL
Ti (DfrA1 [2]; [21]): 55.4 ± 1.7 °C
Δ (Ti shift vs apo) (DfrA1 [2]; [21]): 5.6 °C
Ti (DfrA1 [2]; ternary complex, +NADPH): 66.5 ± 3.3 °C
Δ (Ti shift vs apo) (DfrA1 [2]; ternary complex, +NADPH): 16.7 °C
Ki (E. coli DHFR (EcDHFR)): 0.00273 ± 9e-05 µM
Fold difference in MIC (E. coli BW25113; BW25113 w/o SMX vs w/ SMX): 16
MIC (E. coli BW25113; BW25113, w/ SMX (1:19)): 0.625 µg/mL (≈ 1.49 µM)
MIC (E. coli BW25113; BW25113, w/o SMX, 18 to 20 hours, 37°C): 10 µg/mL (≈ 23.8 µM)
Fold difference in MIC ([3]; BW25113 w/o SMX vs JW0451 w/o SMX): 8
MIC ([3]; Escherichia coli): 1.25 µg/mL (≈ 2.98 µM)
MIC [3]: 0.625 µg/mL (≈ 1.49 µM)
solubility [4]: low
fold loss of activity against DfrA1 and DfrA5 compared to EcDHFR (DfrA1 and DfrA5): 10–14 fold
MIC [5]: 20 µg/mL (≈ 47.6 µM)
Δ (Ti shift vs apo) (DfrA5 [6]; [21]): 3.7 °C
Ti (DfrA5 [6]; ternary complex, +NADPH): 77.3 ± 4.7 °C
Δ (Ti shift vs apo) (DfrA5 [6]; ternary complex, +NADPH): 11 °C
Ki (EcDHFR D27E/L28Q [7]): 0.189 ± 0.00536 µM
fold loss in affinities relative to EcDHFR (EcDHFR D27E/L28Q [7]; combinatorial mutant D27E/L28Q): 69 fold
Ki (EcDHFR D27E [8]): 0.0118 ± 0.0004 µM
fold increase in Ki over EcDHFR (EcDHFR D27E [8]; D27E substitution): 4 fold
Ki (EcDHFR L28Q [9]): 0.0105 ± 0.00069 µM
MIC ([10]; w/ SMX (1:19)): 20 µg/mL (≈ 47.6 µM)
MIC ([10]; w/o SMX): > 20 µg/mL
Ki (DfrA5 [11]): 0.0201 ± 0.00039 µM
Ti 1 (EcDHFR [12]; [21]): 65.5 ± 4.6 °C
Ti 2 (EcDHFR [12]; [21]): 76.5 ± 2.5 °C
Δ1 (Ti shift vs apo) (EcDHFR [12]; [21]): 15.9 °C
Δ2 (Ti shift vs apo) (EcDHFR [12]; [21]): 16.3 °C
Ti 1 (EcDHFR [12]; ternary complex, +NADPH): 64.3 ± 0.1 °C
Ti 2 (EcDHFR [12]; ternary complex, +NADPH): 75.7 ± 1.6 °C
Δ1 (Ti shift vs apo) (EcDHFR [12]; ternary complex, +NADPH): 14.7 °C
Δ2 (Ti shift vs apo) (EcDHFR [12]; ternary complex, +NADPH): 15.5 °C

NC(=O)C1=CN([C@@H]2O[C@H](COP(=O)(O)OP(=O)(O)OC[C@H]3O[C@@H](n4cnc5c(N)ncnc54)[C@H](OP(=O)(O)O)[C@@H]3O)[C@@H](O)[C@H]2O)C=CC1 [NADPH]
fold increase in KM compared to EcDHFR (DfrA1 [13]): 2 fold
fold increase in KM compared to EcDHFR (DfrA5 [14]): 3 fold
Kd (DfrA1 [15]; KD, DfrA1:TMP, titrant NADPH): 0.43 ± 0.095 µM
Kd (DfrA1 [15]; KD, DfrA1:UCP1228 (100 µM UCP1228), titrant NADPH): 0.289 ± 0.051 µM
Kd (DfrA1 [15]; KD, DfrA1 apo): 1.65 ± 0.23 µM
Kd (DfrA1 [15]; KD, DfrA1 apo, series NADPH KD ± UCP1228): 1.04 ± 0.106 µM
Kd (DfrA1 [15]; Kd, DfrA1 apo form (Fig. S8)): 1.04 ± 0.11 µM
Kd (DfrA1 [15]; Kd, DfrA1 preincubated with 100 µM UCP1228, titrant NADPH (Fig. S8)): 0.29 µM
Fold change in KD (DfrA1 [15]; NADPH KD ± Trimethoprim): 4 and 3.8 ± 1.0
Fold change in KD (DfrA1 [15]; NADPH KD ± UCP1228): 4 and 3.6 ± 0.7
Ti (DfrA1 [2]; [21]): 56.5 ± 0.8 °C
Δ (Ti shift vs apo) (DfrA1 [2]; [21]): 6.7 °C
Kd (EcDHFR [16]; EcDHFR apo): 0.771 ± 0.145 µM
Kd (EcDHFR [16]; EcDHFR apo form, Fig. S5a titration): 0.661 µM
Kd (EcDHFR [16]; EcDHFR:TMP (preincubated with 1 µM TMP), titrant NADPH): 0.008 µM and 0.0081 µM
Fold change in KD (EcDHFR [16]; NADPH KD ± Trimethoprim): 95.2 ± 50.3
Ti (DfrA5 [6]; [21]): 69.2 ± 0.5 °C
Δ (Ti shift vs apo) (DfrA5 [6]; [21]): 2.9 °C
Kd (DfrA5 [17]; DfrA5:TMP, titrant NADPH): 1.54 ± 0.38 µM
Kd (DfrA5 [17]; DfrA5:UCP1228 (100 µM UCP1228), titrant NADPH): 0.459 ± 0.157 µM
Kd (DfrA5 [17]; DfrA5 apo): 7.47 ± 1.67 µM
Kd (DfrA5 [17]; DfrA5 apo form (Fig. S8)): 6.84 µM
Kd (DfrA5 [17]; DfrA5 apo, series NADPH KD ± UCP1228): 6.84 ± 1.61 µM
Kd (DfrA5 [17]; DfrA5 preincubated with 100 µM UCP1228, titrant NADPH (Fig. S8)): 0.45 µM
Fold change in KD (DfrA5 [17]; NADPH KD ± Trimethoprim): 5 and 4.9 ± 1.6
Fold change in KD (DfrA5 [17]; NADPH KD ± UCP1228): 15 and 14.9 ± 6.2
Km (EcDHFR D27E/L28Q [18]): 11.1 ± 1.6 µM
kcat (EcDHFR D27E/L28Q [18]): 3.8 ± 0.2 s⁻¹
Km (EcDHFR D27E [19]): 5.8 ± 0.9 µM
kcat (EcDHFR D27E [19]): 5.9 ± 0.3 s⁻¹
Km (EcDHFR L28Q [20]): 7.6 ± 1.3 µM
kcat (EcDHFR L28Q [20]): 4.4 ± 0.2 s⁻¹
Ti 1 (EcDHFR [12]; [21]): 53.8 ± 0.4 °C
Ti 2 (EcDHFR [12]; [21]): 63.1 ± 1.3 °C
Δ1 (Ti shift vs apo) (EcDHFR [12]; [21]): 4.2 °C
Δ2 (Ti shift vs apo) (EcDHFR [12]; [21]): 2.9 °C

From article PMC9106665 (Communications Biology, 2022)
